Test [1] has as its target T1, BTK autophosphorylation (Phospho Y223 Btk) in Ramos cells (Homo sapiens, UniProt Q06187).
T1 construct: endogenous in cells; host or cells: Ramos cells
The experiment in a line: Btk Ramos cell signaling immunoblot analysis, phospho-Btk. To be noted: 1 hour compound incubation, anti-human IgM stimulation, phospho-Btk normalized to total Btk, read-out: pBtk EC50. The class given is cell-based. On the procedure:
(§1) The following example describes testing certain compounds according to the invention for inhibition of BTK activity. Ramos cells were incubated in serum-free RPMI medium for 1-1.5 hours. Cells were then centrifuged for 5 minutes at 1100 RPM and resuspended in serum-free RPMI in 15 mL roundbottom Corning tubes (˜2×10^6 cells/mL in 4 mL/tube). The compound was diluted in DMSO and was added to the cells to achieve a final concentration of 0.0003, 0.001, 0.003, 0.01, 0.03, 0.1, 0.3, and 1.0 μM. Cells were then incubated for 1 hour at 37° C. Following incubation, cells were spun at 1100 RPM for 5 minutes and then resuspended in 100 μL of serum-free RPMI. […] Supernatant was transferred to a fresh tube and analyzed for protein content. […]
(§2) 10 μg of protein was denatured by adding 1:10 (v:v) of NuPage Reducing Agent plus 1:4 (v:v) of LDS Loading Buffer. […] The membrane was then scanned on a LiCor Odyssey Scanner using infrared fluorescence detection.
(§3) Data analysis was accomplished using the analysis package found in Odyssey Infrared Imaging System software in which intensities of total Btk and phospho-Btk were measured. Phospho-Btk was normalized to total Btk protein in each lane as a loading control and results are expressed as % activity compared to the DMSO control (100%) Inhibition of phospho-PLCγ2 was quantitated in a similar manner. […]
A general note: Immunoblotting shows a protein as a band on a membrane.

In test [2] the test system is PLCγ2 phosphorylation (Phospho Y-1217 PLCγ2) in Ramos cells. The test can be described thus: Btk Ramos cell signaling immunoblot analysis, phospho-PLCγ2. Format: cell-based. Conditions: 1 hour compound incubation, anti-human IgM stimulation, read-out: pPLCγ2 EC50. As for the experimental part:
as §1, §2, §3

Test [3] deals with human recombinant full-length Btk enzyme (Homo sapiens, UniProt Q06187). The test can be described thus: Covalent bonding assay, intact protein MALDI mass spectrometry. Further details: The full-length recombinant human Btk protein; purchased Invitrogen Lot #619547Q (catalogue number not given). The class given is binding. Conditions: percentage of total protein covalently modified after one hour incubation, 10-fold excess of compound, room temperature. As for the experimental part: The following example describes testing certain compounds to determine whether they covalently bind to BTK. The full-length recombinant human Btk protein (Lot #619547Q; 0.35 mg/mL) was obtained from Invitrogen (Carlsbad, Calif.). Btk protein was diluted 2:3 in phosphate-buffered saline and stock concentration (10 mM) of compound was diluted 1:115 in 50% DMSO.
Chain of human recombinant full-length Btk enzyme (Q06187 whole entry): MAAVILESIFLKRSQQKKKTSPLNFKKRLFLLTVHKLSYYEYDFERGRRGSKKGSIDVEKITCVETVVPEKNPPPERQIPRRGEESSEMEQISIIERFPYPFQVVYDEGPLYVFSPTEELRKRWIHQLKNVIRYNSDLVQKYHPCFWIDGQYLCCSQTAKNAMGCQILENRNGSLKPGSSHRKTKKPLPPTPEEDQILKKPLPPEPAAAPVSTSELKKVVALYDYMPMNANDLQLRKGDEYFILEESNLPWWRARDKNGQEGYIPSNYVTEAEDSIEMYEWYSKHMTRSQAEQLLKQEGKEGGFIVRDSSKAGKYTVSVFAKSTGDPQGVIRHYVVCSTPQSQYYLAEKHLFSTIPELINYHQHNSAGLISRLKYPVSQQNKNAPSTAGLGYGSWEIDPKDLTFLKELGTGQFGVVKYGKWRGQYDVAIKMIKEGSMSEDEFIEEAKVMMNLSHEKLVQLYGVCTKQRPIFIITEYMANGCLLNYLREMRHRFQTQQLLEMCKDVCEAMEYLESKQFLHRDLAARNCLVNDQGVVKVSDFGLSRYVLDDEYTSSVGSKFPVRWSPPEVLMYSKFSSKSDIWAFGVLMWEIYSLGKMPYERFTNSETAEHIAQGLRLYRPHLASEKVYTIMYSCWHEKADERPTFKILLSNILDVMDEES
For all compounds, 1 μL of diluted compound was added to 5 μL of diluted protein. These mixtures were then incubated for 60 minutes at a 10-fold excess of compound to protein under room temperature (˜24° C.) conditions.
At the end of the incubation, 5 μL aliquots of the samples were diluted with 15 μL of 0.2% TFA prior to micro C4 ZipTipping® directly onto the MALDI target plate using sinapinic acid as the desorption matrix (10 mg/mL in 0.2% TFA:Acetonitrile 50:50). Samples were immediately analyzed on an ABSciex 4800 MALDI TOF-TOF mass spectrometer.
For intact protein mass measurement, the mass spectrometer was set in linear mode using a pulsed extraction setting of 81,500. Bovine serum albumin (BSA; Sigma, St Louis, Mo.) was used as the standard to calibrate the instrument. These values correspond to the percentage of total protein covalently modified by the tested compound after one hour incubation.

A value given as a limit tells only on which side of the number the result lay.

T1 sequence (Q06187 whole entry): as above

On to `C=CC(=O)Nc1cccc(Nc2nc(Nc3ccc(OCCO)cc3)ncc2F)c1` [Compound I-1, N-(3-((5-fluoro-2-((4-(2-hydroxyethoxy)phenyl)amino)pyrimidin-4-yl)amino)phenyl)acrylamide], for which the EC50 in test [1] and in test [2] was less than 10 nM in each case. Further, the MS % modification result in test [3] is “B (31-69% modification)”.

For `C=CC(=O)Nc1cccc(Nc2nc(Nc3ccc(O)cc3)ncc2F)c1` [Compound I-3, N-(3-((5-fluoro-2-((4-hydroxyphenyl)amino)pyrimidin-4-yl)amino)phenyl)acrylamide], the EC50 in test [1] and in test [2] was 10 to 50 nM throughout. In addition, the MS % modification entry in test [3] was “A (>70% modification)”.

A word on the EC50: it is the concentration at which the effect is half-maximal.

(Values after patent US9415049B2, “Heteroaryl compounds and uses thereof” (Celgene Avilomics Research, Inc., priority 2013, dated 2016).)
